Laboratory results from patent US20080161234A1, “Composition Comprising Lactic Acid and Lactoferrin” (priority 2004, published 2008).
Where a name gives a salt, the structure may show the parent alone.

What was measured:
Assay type in all cases: cell-based
[1] = test system: S. aureus 1800 (CCUG 1800); assay: Microbicidal microplate-droplet assay, S. aureus
Description: (§1) The bacterial strains S. aureus 1800 (CCUG 1800), E. coli 06, and the yeast C. albicans (ATCC 64549) have been used in the microplate assay. All microorganisms were cultured in brain heart infusion medium (BHI) on a shaker over night at 37° C. A volume of the culture was transferred to a new tube with BHI and incubated for two more h on the shaker. The bacteria were harvested in the log phase, washed once and thereafter suspended in the broth used for the microplate assay. The suspension was adjusted spectrophotometrically and diluted to a concentration of approximately 4×10^6 cells per ml at 650 nm. Washed cells were suspended in 0.2% BP (pH 7.0) or BHI medium diluted 1/10 (0.34%, pH 6.7-6.9) (Difco, USA). The concentration of bacterial or fungal cells was spectrophotometrically adjusted. LF or peptide, serially diluted in BHIdil or BP by twofold steps (unless otherwise stated), were added in triplicate to the wells of a microtiterplate (200 ul per well). The bacterial or yeast cell solutions were added in 10 ul volumes to give a final concentration of approximately 2×10^5 cells per ml. The concentration of the stock solution was always checked by viable counts. The microplate was incubated at 37° C. in a humid chamber for 2 h unless otherwise stated. Five ul were taken from each well and added as a drop onto a blood agar plate and incubated over night at 37° C. In some experiments more thorough viable counts were performed and the killing was expressed as remaining colony forming units in relation to the inoculum. The lower limit for detection of microorganisms was 200 CFU/ml. The antimicrobial activity of human LF was analysed by the microbicidal assay described above. Different microbes such as C. albicans, E. coli and S. aureus were analysed with respect to their survival in lactate (not containing the inert gel base, which makes the gel unsuitable for the microbicidal assay) containing LF.

L. jensenii = assay: Survival of L. jensenii in lactate with LF; details: lactate 1%, 0.34% BHI, CO2, 3 h
Description: L. gasseri and L. jensenii were cultured on chocolate-agar plates for 24 h in 5% CO2/95% air. They were thereafter harvested and added to BHI (0.34%). After washing the bacterial solutions were adjusted spectrophotometrically and diluted to 8×10^6 bacteria/ml.
Washed cells were suspended in 0.2% BP (pH 7.0) or BHI medium diluted 1/10 (0.34%, pH 6.7-6.9) (Difco, USA). The concentration of bacterial or fungal cells was spectrophotometrically adjusted. LF or peptide, serially diluted in BHIdil or BP by twofold steps (unless otherwise stated), were added in triplicate to the wells of a microtiterplate (200 ul per well). The bacterial or yeast cell solutions were added in 10 ul volumes to give a final concentration of approximately 2×10^5 cells per ml. The concentration of the stock solution was always checked by viable counts. The microplate was incubated at 37° C. in a humid chamber for 2 h unless otherwise stated. Five ul were taken from each well and added as a drop onto a blood agar plate and incubated over night at 37° C. In some experiments more thorough viable counts were performed and the killing was expressed as remaining colony forming units in relation to the inoculum. The lower limit for detection of microorganisms was 200 CFU/ml.
L. gasseri survived better in the assay system than did L. jensenii. Undiluted lactate (5%) affected the survival of Lactobacillus.

C. albicans (ATCC 64549) = assay: Microbicidal microplate assay (viable counts), C. albicans
Description: as §1, with “LF. […] LF was incubated together with various concentrations of lactate diluted in 0.2% bactopeptone and C. albicans for 2 h. Thereafter each solution was analysed for viable counts.” for “LF.”

E. coli 06 = assay: Microbicidal microplate-droplet assay, E. coli; parameters: key to E. coli killing, growth grade in droplet assay: +++ means that the number of colony forming units (CFU) contained within 5 ul of a droplet formed a smooth layer of bacteria; ++ means that a “ruffled” area is seen; 0 means that no CFU were found in triplicate samples of 5 ul (>99.95 killed of the inoculum)
Description: as §1

[2] = in the absence or presence of LF

SMILES: CC(O)C(=O)O (stereo not drawn) [lactate, α-hydroxipropionic acid]
- antibacterial activity towards S. aureus [1, 2]: good
- S. aureus killing, percentage of bacteria remaining in relation to the inoculum ([1]; lactate 0.2% alone (HLF t0 ug/ml), 2 h incubation): 0 (0 = no bacteria in triplicate samples of 5 ul (>99.95 killed of the inoculum).)
- S. aureus killing, percentage of bacteria remaining in relation to the inoculum ([1]; lactate 0.2% alone (HLF t0 ug/ml), 5 h incubation): 0 (0 = no bacteria in triplicate samples of 5 ul (>99.95 killed of the inoculum).)
- S. aureus killing, percentage of bacteria remaining in relation to the inoculum ([1]; lactate 1% alone (HLF t0 ug/ml), 2 h incubation): 0 (0 = no bacteria in triplicate samples of 5 ul (>99.95 killed of the inoculum).)
- S. aureus killing, percentage of bacteria remaining in relation to the inoculum ([1]; lactate 1% alone (HLF t0 ug/ml), 5 h incubation): 0 (0 = no bacteria in triplicate samples of 5 ul (>99.95 killed of the inoculum).)
- S. aureus killing, percentage of bacteria remaining in relation to the inoculum ([1]; lactate 5% alone (HLF t0 ug/ml), 2 h incubation): 0 (0 = no bacteria in triplicate samples of 5 ul (>99.95 killed of the inoculum).)
- S. aureus killing, percentage of bacteria remaining in relation to the inoculum ([1]; lactate 5% alone (HLF t0 ug/ml), 5 h incubation): 0 (0 = no bacteria in triplicate samples of 5 ul (>99.95 killed of the inoculum).)
- antimicrobial activity against S. aureus ([1]; undiluted lactate, without LF): complete
- survival of L. jensenii (L. jensenii): did not survive
- reduction of Candida (C. albicans (ATCC 64549); lactate 1% without LF, 2 h): 65%
- antifungal activity (C. albicans (ATCC 64549); undiluted lactate): an antifungal activity was observed
- survival of C. albicans (C. albicans (ATCC 64549); undiluted lactate (5%), 2 h): no yeast cells survived
- antimicrobial activity against C. albicans (C. albicans (ATCC 64549); undiluted lactate (5%), without LF or HL2): complete
- antibacterial activity towards E. coli (E. coli 06; [2]): good
- E. coli killing, growth grade in droplet assay (E. coli 06; lactate 0.2% alone (HLF 0 ug/ml), 2 h incubation): ++
- E. coli killing, percentage of bacteria remaining in relation to the inoculum (E. coli 06; lactate 0.2% alone (HLF 0 ug/ml), 5 h incubation): 5%
- E. coli killing, percentage of bacteria remaining in relation to the inoculum (E. coli 06; lactate 1% alone (HLF 0 ug/ml), 5 h incubation): 6%
- E. coli killing, percentage of bacteria remaining in relation to the inoculum (E. coli 06; lactate 5% alone (HLF 0 ug/ml), 2 h incubation): 0 (0 means that no CFU were found in triplicate samples of 5 ul (>99.95 killed of the inoculum))
- E. coli killing, percentage of bacteria remaining in relation to the inoculum (E. coli 06; lactate 5% alone (HLF 0 ug/ml), 5 h incubation): 0 (0 means that no CFU were found in triplicate samples of 5 ul (>99.95 killed of the inoculum))
- survival of E. coli (E. coli 06; undiluted lactate (5%), 2 h): no bacteria survived
- antimicrobial activity against E. coli (E. coli 06; undiluted lactate, without LF): complete

SMILES: Cl [HCl, hydrogen chloride, reference compound]
- Candidacidal activity with lactate replaced by HCl (C. albicans (ATCC 64549); HCl giving the same pH as lactate, undiluted, with LF): reduced Candidacidal activity
